Test results taken from BindingDB's records for doi:10.7270/Q2H70D87 (Nmmlsc, 2011).

Biological target: 60S ribosomal protein L19-A (Saccharomyces cerevisiae (strain ATCC 204508 / S288c), UniProt P0CX82)
Assay: RPL19A-GFP expression changes in yeast, dose response, cell-based, cherry pick 3, SAR, flow cytometry GFP, multiplex (AID 488814)
Details: inactive by the depositor's call

60S ribosomal protein L19-A, sequence (P0CX82 whole entry): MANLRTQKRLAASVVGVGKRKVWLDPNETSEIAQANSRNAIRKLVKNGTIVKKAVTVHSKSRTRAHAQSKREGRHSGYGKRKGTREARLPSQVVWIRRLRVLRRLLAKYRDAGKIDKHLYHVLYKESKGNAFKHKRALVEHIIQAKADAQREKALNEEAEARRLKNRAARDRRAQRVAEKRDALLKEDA

| EC50 [µM] | SMILES |
| --- | --- |
| 55.7 | CCOC(=O)CS(=O)(=O)c1nc(-c2ccccc2)cc(C(F)(F)F)n1 [2-[4-phenyl-6-(trifluoromethyl)pyrimidin-2-yl]sulfonylacetic acid ethyl ester] |
| 38.2 | Cc1ccc(C(=O)Nc2nc(-c3ccccn3)cs2)o1 [5-methyl-N-[4-(2-pyridinyl)-2-thiazolyl]-2-furancarboxamide] |
